Target: T1, recombinant human ULK1 protein (1-649) (Homo sapiens, UniProt O75385)
T1 construct: recombinant human ULK1 protein (1-649, SignalChem #U01-11G); purchased SignalChem U01-11G
T1 sequence (O75385 1-649): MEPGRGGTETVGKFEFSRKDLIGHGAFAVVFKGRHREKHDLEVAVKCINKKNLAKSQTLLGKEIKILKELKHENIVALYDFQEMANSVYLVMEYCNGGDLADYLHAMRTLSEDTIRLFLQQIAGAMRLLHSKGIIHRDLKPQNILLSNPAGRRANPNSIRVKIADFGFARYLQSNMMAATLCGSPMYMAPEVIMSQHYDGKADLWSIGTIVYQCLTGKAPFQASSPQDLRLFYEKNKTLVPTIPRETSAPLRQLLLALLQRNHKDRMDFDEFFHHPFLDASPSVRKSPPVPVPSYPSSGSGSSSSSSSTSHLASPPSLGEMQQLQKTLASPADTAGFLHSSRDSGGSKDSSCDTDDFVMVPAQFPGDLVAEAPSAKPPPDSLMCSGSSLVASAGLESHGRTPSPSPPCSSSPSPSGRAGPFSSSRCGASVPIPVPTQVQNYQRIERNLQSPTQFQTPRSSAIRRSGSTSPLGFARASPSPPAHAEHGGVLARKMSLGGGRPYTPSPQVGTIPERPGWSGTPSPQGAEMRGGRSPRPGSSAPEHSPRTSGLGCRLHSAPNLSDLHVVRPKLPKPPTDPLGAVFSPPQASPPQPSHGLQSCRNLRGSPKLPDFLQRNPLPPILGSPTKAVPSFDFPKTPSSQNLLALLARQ
Assay: ULK1 inhibition assay (ADP Glo)
Format: biochemical
Method: Illustrative compounds of Formula I and related analogs are shown in Table 1 (along with their respective IC50 values for ULK1 inhibition assays). For ADP Glo assay, IC50s are represented nM, with A representing IC50<1 nM, B representing 10 nM>IC50>1 nM, and C representing IC50>10 nM. NT indicates the compound was not tested. ULK1 inhibition assays were performed in a 5 uL reaction volume containing 2 ug/mL recombinant human ULK1 protein (1-649, SignalChem #U01-11G) and 80 ug/mL myelin basic protein (MBP, Sigma-Aldrich #M1891) in the presence of 25 uM ATP (Sigma-Aldrich A7699). ULK 1 inhibition was assessed after one hour. Compounds were tested in triplicate in a 16-dose IC50 mode with 3-fold serial dilution and a starting dose of 30 uM. Staurosporine, a non-selective protein kinase inhibitor, was used in the assay as a positive control.
According to another embodiment, the present disclosure provides methods of producing the above-defined compounds. The compounds may be synthesized using any suitable techniques. Advantageously, these compounds are conveniently synthesized from readily available starting materials. Synthetic chemistry transformations and methodologies useful in synthesizing the compounds described herein are known in the art and include, for example, those described in R. Larock, Comprehensive Organic Transformations (1989); T. W. Greene and P. G. M. Wuts, Protective Groups in Organic Synthesis, 2d. Ed. (1991); L. Fieser and M. Fieser, Fieser and Fieser's Reagents for Organic Synthesis (1994); and L. Paquette, ed., Encyclopedia of Reagents for Organic Synthesis (1995).). In general, synthesis and measurements of ULK1 inhibitory activity of the compounds described herein was performed using method analogous to those previously described in PCT International Application No. PCT/US2015/046777 which is hereby incorporated by reference in its entirety.

[1] = Table 1, 25 uM ATP, MBP substrate, one hour

IC50 [1] [nM] | SMILES | other results
– | OCc1ccccc1Nc1nc(Nc2ccc(OC(F)F)cc2)ncc1Br [Compound C8] | IC50 (Table 3): 5 to 100 nM
– | COC(=O)c1ccccc1Nc1nc(Nc2cc(OC)c(OC)c(OC)c2)ncc1Br [Compound E1] | IC50 (Table 3): < 5 nM
> 10 | CNC(=O)c1ccccc1Nc1nc(Nc2ccc3c(c2)CCN(Cc2cccnc2)C3)ncc1Br [Compound A130, 2-[5-Bromo-2-(2-pyridin-3-ylmethyl-1,2,3,4-tetrahydro-isoquinolin-6-ylamino)-pyrimidin-4-ylamino]-N-methyl-benzamide] | –
– | COC(=O)c1ccccc1Oc1nc(Nc2ccc3c(c2)CCO3)ncc1Br [Compound B30] | IC50 (Table 2): > 1000 nM
– | COC(=O)c1ccccc1Oc1nc(Nc2cnc3[nH]ccc3c2)ncc1Br [Compound B18] | IC50 (Table 2): > 1000 nM
< 1 | O=C(CN1CCc2ccc(Nc3ncc(C(F)(F)F)c(NC4CC4)n3)cc2C1)N1CCOCC1 [Compound A100] | –
> 10 | CNC(=O)c1ccccc1Nc1nc(Nc2ccc3c(c2)CN(C(=O)CCC(=O)O)CC3)ncc1Br [Compound A156, 4-{7-[5-Bromo-4-(2-methylcarbamoyl-phenylamino)-pyrimidin-2-ylamino]-3,4-dihydro-1H-isoquinolin-2-yl}-4-oxo-butyric acid] | –
> 10 | CCOC(=O)c1cnc(Nc2ccc3c(c2)CCN(C(=O)OC(C)(C)C)C3)nc1NC1CC1 [Compound A28] | –
< 1 | FC(F)(F)c1cnc(Nc2ccc3c(c2)CN(Cc2ccncc2)CC3)nc1NC1CC1 [Compound A82] | –
1 to 10 | FC(F)(F)c1cnc(Nc2ccc3c(c2)CN(CC2OCCO2)CC3)nc1NC1CC1 [Compound A79] | –
< 1 | N#CCN1CCc2cc(Nc3ncc(C(F)(F)F)c(NC4CC4)n3)ccc2C1 [Compound A45] | –
– | COc1cc(Nc2ncc(Br)c(Oc3ccccc3C(=O)N3CCC3)n2)cc(OC)c1OC [Compound B50] | IC50 (Table 2): > 1000 nM
< 1 | FC(F)(F)c1cnc(Nc2ccc3c(c2)CCN(Cc2cc[nH]c2)C3)nc1NC1CC1 [Compound A42] | –
< 1 | FC(F)(F)c1cnc(Nc2ccc3c(c2)CN(Cc2cncnc2)CC3)nc1NC1CC1 [Compound A108] | –
– | COC(=O)c1ccccc1Oc1nc(Nc2ccc(CO)cc2)ncc1Br [Compound B38] | IC50 (Table 2): > 1000 nM
< 1 | N[C@H](CO)C(=O)N1CCc2cc(Nc3ncc(C(F)(F)F)c(NC4CC4)n3)ccc2C1 (stereo in doubt) [Compound A48] | –
– | COc1cc(Nc2ncc(Br)c(Oc3ccccc3C(=O)N(C)O)n2)cc(OC)c1OC [Compound B15] | IC50 (Table 2): < 100 nM
– | COc1cc(Nc2ncc(C(F)(F)F)c(Nc3ccccc3CO)n2)cc(OC)c1OC [Compound C3] | IC50 (Table 3): < 5 nM
< 1 | O=C(CCO)N1CCc2cc(Nc3ncc(C(F)(F)F)c(NC4CC4)n3)ccc2C1 [Compound A68] | –
> 10 | CNC(=O)c1ccccc1Nc1nc(Nc2ccc3c(c2)CCN(S(N)(=O)=O)C3)ncc1Br [Compound A140, 2-[5-Bromo-2-(2-sulfamoyl-1,2,3,4-tetrahydro-isoquinolin-6-ylamino)-pyrimidin-4-ylamino]-N-methyl-benzamide] | –
< 1 | CC(C)(O)CN1CCc2cc(Nc3ncc(C(F)(F)F)c(NC4CC4)n3)ccc2C1 [Compound A18] | –
– | COc1cc(Nc2ncc(Br)c(Oc3ccccc3C(=O)NCCC#N)n2)cc(OC)c1OC [Compound B10] | IC50 (Table 2): > 1000 nM
< 1 | FC(F)(F)c1cnc(Nc2ccc3c(c2)CCN(Cc2ccco2)C3)nc1NC1CC1 [Compound A46] | –
– | COc1cc(Nc2ncc(Br)c(Nc3ccccc3CN3CCN(C)CC3)n2)cc(OC)c1OC [Compound C20] | IC50 (Table 3): > 100 nM
– | COc1cc(Nc2ncc(Br)c(Nc3ccccc3CNCC(N)=O)n2)cc(OC)c1OC [Compound C25] | IC50 (Table 3): 5 to 100 nM
1 to 10 | CC(C)(C)OC(=O)N1CCc2ccc(Nc3ncc(C(F)(F)F)c(NC4CC4)n3)cc2C1 [Compound A15] | –
> 10 | CNC(=O)c1ccccc1Nc1nc(Nc2ccc3c(c2)CCN(C(=O)CCN)C3)ncc1Br [Compound A136, 2-{2-[2-(3-Amino-propionyl)-1,2,3,4-tetrahydro-isoquinolin-6-ylamino]-5-bromo-pyrimidin-4-ylamino}-N-methyl-benzamide] | –

Reference: patent US20230135635A1, “INHIBITORS OF ULK1/2 AND METHODS OF USING SAME” (SALK INSTITUTE FOR BIOLOGICAL STUDIES, priority 2020, published 2023)
